ChEMBL document CHEMBL1201862, “PubChem BioAssay data set” (2004)
Activity calls are given as the source filed them.

Key:
[1] = target: E3 ubiquitin-protein ligase Mdm2 (Homo sapiens, UniProt Q00987); assay: enhancers of MDM2-luciferase reporter signal, concentration-effect titration, project on inhibitors of MDM2 ubiquitin ligase, cellular assay, luminescent readout, 384-well plate format (AID 1394); type: functional;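 further: MDM2 E3 inhibitors raise luminescence so EC50 is for signal enhancement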
Sequence of E3 ubiquitin-protein ligase Mdm2 (Q00987 whole entry): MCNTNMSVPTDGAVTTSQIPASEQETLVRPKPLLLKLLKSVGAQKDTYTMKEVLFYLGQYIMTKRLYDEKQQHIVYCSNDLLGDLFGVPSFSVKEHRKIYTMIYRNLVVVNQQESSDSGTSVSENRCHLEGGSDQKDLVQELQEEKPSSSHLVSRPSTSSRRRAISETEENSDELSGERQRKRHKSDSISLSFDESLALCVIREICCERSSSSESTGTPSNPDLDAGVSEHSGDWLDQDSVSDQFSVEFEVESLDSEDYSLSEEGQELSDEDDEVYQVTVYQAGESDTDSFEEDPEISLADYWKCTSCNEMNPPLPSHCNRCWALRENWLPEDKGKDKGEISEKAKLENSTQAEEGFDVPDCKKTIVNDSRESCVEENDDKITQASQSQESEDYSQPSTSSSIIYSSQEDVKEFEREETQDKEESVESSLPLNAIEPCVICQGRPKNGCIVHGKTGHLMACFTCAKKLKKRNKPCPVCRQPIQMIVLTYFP

[2] = target: Sphingosine 1-phosphate receptor 2 (Homo sapiens, UniProt O95136); assay: Dose Response Cell Based Assay for Agonists of the S1P2 Receptor. [Related pubchem assays: 729, 736, 843 ]; type: functional
Sequence of Sphingosine 1-phosphate receptor 2 (O95136 whole entry): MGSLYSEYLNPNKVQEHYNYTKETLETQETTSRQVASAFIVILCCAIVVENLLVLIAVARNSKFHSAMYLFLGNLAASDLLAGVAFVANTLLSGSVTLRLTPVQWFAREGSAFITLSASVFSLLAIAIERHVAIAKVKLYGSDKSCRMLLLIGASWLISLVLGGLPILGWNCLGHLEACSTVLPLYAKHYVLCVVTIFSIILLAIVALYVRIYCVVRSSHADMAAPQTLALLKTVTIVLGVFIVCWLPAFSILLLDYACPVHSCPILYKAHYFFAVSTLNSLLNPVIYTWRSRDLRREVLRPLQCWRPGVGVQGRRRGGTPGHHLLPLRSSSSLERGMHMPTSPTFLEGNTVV

[3] = tested on: Vero; assay: host cell cytotoxicity of antiviral hits, dose response, cytotoxicity control for West Nile virus antiviral project, secondary assay (AID 1650); type: functional; details: Chlorocebus sabaeus
[4] = target: Bifunctional protein GlmU (Mycobacterium tuberculosis, UniProt P9WMN3); assay: Inhibitors of Mycobacterial Glucosamine-1-phosphate acetyl transferase (GlmU). Secondary screen.; design: species or system Mycobacterium tuberculosis H37Rv
[5] = target: Induced myeloid leukemia cell differentiation protein Mcl-1 (Homo sapiens, UniProt Q07820); type: functional
[6] = target: 72 kDa type IV collagenase (Homo sapiens, UniProt P08253); assay: Dose Response validation of uHTS RPN11 inhibitor hits using a MMP-2 Fluorescence assay.; type: functional
Sequence of 72 kDa type IV collagenase (P08253 whole entry): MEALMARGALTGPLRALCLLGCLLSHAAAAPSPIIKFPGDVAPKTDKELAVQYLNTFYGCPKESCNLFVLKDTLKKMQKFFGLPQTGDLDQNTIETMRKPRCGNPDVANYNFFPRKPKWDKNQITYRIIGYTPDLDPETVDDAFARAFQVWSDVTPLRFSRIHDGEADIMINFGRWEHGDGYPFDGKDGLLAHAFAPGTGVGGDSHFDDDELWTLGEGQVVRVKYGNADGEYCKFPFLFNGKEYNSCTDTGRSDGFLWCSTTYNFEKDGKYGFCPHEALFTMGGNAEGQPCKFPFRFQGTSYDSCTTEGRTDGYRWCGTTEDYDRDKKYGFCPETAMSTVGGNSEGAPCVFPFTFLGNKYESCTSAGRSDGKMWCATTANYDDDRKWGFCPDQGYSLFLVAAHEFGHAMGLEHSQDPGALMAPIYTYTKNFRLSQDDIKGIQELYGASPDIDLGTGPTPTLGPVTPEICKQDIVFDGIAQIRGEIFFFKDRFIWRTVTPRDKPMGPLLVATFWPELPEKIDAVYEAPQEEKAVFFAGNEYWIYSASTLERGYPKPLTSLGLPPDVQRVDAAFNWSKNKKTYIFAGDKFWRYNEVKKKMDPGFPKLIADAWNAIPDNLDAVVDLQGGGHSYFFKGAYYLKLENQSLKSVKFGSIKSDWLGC

[7] = target: Prothrombin (Bos taurus, UniProt P00735); assay: thrombin inhibition, dose response, biochemical, fluorescence polarization, uHTS hits (AID 602369); type: functional
[8] = target: 26S proteasome non-ATPase regulatory subunit 14 (Homo sapiens, UniProt O00487); assay: inhibition of proteasome subunit RPN11 – biochemical, fluorescence polarization, uHTS hits, confirmation (AID 602368); type: functional
Sequence of 26S proteasome non-ATPase regulatory subunit 14 (O00487 whole entry): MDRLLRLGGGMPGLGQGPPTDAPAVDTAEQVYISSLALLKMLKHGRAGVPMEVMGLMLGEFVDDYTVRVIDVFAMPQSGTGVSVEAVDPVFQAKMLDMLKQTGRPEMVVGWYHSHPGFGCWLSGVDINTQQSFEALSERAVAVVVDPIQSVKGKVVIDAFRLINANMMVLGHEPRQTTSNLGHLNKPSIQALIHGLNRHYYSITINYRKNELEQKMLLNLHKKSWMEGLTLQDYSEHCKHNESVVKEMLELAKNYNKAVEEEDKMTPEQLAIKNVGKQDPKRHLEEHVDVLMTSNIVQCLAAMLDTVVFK

[9] = target: T1, Histone-lysine N-methyltransferase NSD2 (Homo sapiens, UniProt O96028); type: biochemical
T1 sequence (O96028 whole entry): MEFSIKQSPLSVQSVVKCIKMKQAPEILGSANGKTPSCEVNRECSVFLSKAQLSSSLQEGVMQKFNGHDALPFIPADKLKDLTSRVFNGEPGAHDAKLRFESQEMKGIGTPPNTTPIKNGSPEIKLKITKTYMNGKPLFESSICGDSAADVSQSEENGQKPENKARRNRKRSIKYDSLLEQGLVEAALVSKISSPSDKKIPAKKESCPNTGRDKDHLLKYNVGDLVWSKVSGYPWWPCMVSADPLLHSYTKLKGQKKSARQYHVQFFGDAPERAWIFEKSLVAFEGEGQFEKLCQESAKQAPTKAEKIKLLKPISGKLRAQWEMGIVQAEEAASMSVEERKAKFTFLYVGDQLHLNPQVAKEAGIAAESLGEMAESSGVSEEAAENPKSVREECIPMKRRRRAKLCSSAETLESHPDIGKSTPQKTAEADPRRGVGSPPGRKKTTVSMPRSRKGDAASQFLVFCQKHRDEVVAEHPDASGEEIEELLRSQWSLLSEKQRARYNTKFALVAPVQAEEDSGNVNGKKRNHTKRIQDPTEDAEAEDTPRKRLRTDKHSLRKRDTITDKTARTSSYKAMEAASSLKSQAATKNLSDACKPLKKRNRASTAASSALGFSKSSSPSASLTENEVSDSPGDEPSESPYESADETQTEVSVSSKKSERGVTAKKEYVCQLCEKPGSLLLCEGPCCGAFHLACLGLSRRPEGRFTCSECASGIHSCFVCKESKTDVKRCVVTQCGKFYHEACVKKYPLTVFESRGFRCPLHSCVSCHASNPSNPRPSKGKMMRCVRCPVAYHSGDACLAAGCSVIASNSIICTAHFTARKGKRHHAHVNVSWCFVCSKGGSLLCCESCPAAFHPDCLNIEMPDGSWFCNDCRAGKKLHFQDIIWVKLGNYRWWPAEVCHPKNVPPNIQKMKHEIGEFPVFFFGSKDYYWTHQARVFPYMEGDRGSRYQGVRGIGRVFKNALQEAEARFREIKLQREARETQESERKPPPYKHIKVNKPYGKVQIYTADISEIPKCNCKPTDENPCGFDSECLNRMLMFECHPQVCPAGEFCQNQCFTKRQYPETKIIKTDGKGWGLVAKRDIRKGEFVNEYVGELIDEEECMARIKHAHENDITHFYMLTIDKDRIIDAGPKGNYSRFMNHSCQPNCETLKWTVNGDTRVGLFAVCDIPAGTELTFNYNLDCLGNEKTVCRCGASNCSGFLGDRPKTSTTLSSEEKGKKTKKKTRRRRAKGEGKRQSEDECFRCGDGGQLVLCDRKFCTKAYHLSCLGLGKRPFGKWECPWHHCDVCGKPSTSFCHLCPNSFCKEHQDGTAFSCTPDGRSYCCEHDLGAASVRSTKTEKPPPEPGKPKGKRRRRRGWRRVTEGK

[10] = target: T2, Rac GTPase-activating protein 1 (Homo sapiens, UniProt Q9H0H5); assay: MgcRacGAP GTPase-activating activity inhibitors, confirmation, biochemical, ADP Hunter fluorescence, primary and confirmatory (AID 624330); type: functional
T2 sequence (Q9H0H5 whole entry): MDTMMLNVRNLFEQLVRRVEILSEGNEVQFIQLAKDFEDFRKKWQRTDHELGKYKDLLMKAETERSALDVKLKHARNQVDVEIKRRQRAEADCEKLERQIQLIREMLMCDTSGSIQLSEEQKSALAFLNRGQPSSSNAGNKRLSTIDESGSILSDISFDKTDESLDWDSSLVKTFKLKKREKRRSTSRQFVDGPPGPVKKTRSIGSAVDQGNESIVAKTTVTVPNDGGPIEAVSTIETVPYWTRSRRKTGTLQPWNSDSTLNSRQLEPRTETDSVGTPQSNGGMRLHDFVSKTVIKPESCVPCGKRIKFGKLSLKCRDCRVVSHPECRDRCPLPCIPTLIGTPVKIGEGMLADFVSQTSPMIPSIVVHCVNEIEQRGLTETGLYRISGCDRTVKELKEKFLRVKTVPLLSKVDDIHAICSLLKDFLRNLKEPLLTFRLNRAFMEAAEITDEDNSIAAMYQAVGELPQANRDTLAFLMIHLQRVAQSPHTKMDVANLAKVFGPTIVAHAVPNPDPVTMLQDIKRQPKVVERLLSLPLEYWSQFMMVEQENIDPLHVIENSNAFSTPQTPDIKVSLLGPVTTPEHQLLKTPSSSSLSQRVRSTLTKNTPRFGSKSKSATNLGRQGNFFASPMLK

[11] = target: DNA (cytosine-5)-methyltransferase 1 (Homo sapiens, UniProt P26358); assay: DNMT1 methyltransferase inhibitors, confirmation, biochemical, fluorescent molecular beacon (AID 602386); type: functional
[12] = target: T3, Bcl-2-related protein A1 (Mus musculus, UniProt Q07440); assay: Bfl-1 binding inhibitors, SAR follow-up, biochemical, fluorescence polarization (AID 1070)
T3 sequence (Q07440 whole entry): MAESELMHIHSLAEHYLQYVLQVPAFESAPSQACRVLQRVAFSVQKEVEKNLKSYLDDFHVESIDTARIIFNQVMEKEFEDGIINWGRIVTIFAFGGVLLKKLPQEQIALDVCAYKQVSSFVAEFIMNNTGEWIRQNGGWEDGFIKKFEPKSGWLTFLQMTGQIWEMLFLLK

[13] = target: T3, Bcl-2-related protein A1; assay: Bfl-1 inhibitors blocking BH3 peptide binding, confirmation, biochemical, TR-FRET, mouse Bfl-1 (AID 621);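 further: TR-FRET binding of GST-Bfl-1 to FITC-labelled Bid peptide via terbium antibody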
[14] = target: NADPH oxidase 1 (Homo sapiens, UniProt Q9Y5S8); assay: Late-stage luminescence-based cell-based dose response assay to identify inhibitors of NADPH oxidase 1 (NOX1): Purchased analogs 2.; type: functional
[15] = target: Diphosphomevalonate decarboxylase (Streptococcus pneumoniae serotype 2 (strain D39 / NCTC 7466), UniProt Q9FD53); assay: S. pneumoniae DPM-DC inhibition retest, confirmation, biochemical, cuvette format, coupled NADH fluorescence (AID 1028); type: functional
[16] = target: T4, High affinity choline transporter 1 (Homo sapiens, UniProt Q9GZV3); assay: CHT inhibitors, dose response, cell-based, 5-point CRC, membrane potential dye (AID 504840); type: functional
T4 sequence (Q9GZV3 whole entry): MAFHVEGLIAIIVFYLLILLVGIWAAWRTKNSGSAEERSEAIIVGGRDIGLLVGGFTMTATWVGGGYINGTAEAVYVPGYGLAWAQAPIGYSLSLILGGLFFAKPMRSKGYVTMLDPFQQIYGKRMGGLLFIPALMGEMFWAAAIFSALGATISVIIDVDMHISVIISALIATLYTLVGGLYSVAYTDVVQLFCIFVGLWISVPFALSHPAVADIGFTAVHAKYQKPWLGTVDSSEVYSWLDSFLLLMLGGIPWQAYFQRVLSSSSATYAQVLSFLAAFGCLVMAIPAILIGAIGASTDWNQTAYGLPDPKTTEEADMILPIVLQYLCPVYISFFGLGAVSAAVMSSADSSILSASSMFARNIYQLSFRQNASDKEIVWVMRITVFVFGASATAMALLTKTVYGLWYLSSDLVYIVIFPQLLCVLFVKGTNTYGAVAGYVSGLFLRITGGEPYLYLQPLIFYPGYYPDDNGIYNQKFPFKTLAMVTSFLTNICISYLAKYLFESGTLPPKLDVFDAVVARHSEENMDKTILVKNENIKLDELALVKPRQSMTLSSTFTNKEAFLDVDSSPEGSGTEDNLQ

[17] = Luminescence Cell-Based Dose Confirmation HTS to Identify Inhibitors of Platelet Dense Granule Release. [Related pubchem assays: 1663 (Primary HTS), 1678 (Summary of Project)]; type: functional
[18] = Luminescent dose response cell-based high throughput screening assay for inhibitors of the Janus kinase 2 mutant JAK2V617F. [Related pubchem assays: 1446 (Primary screen.), 1521 (Confirmation assay.), 1486 (Counter screen.)]; type: functional
[19] = target: Luciferin 4-monooxygenase (Photinus pyralis, UniProt P08659); assay: firefly luciferase enzyme inhibitors, dose response, biochemical, luminescence (AID 1891)
[20] = target: T5, RNA-binding protein pos-1 (Caenorhabditis elegans, UniProt G5EF15); assay: inhibitors of POS-1/mex-3 RNA binding, dose response, biochemical, fluorescence polarization (AID 1964);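 further: purified POS-1 fused to maltose binding protein made in E. coli; potency of compounds blocking POS-1 binding to fluorescent RNA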
T5 sequence (G5EF15 whole entry): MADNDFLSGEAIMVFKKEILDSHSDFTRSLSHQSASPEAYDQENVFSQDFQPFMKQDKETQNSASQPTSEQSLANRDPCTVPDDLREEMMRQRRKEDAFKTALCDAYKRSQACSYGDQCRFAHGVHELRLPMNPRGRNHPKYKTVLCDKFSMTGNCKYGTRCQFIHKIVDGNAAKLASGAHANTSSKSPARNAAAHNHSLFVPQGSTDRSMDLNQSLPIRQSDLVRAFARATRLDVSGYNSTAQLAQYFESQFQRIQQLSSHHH

[21] = target: T6, Zinc finger protein mex-5 (Caenorhabditis elegans, UniProt Q9XUB2); assay: MEX-5/TCR-2 RNA interaction inhibitors, dose response, biochemical, C. elegans, fluorescence polarization (AID 1960)
T6 sequence (Q9XUB2 whole entry): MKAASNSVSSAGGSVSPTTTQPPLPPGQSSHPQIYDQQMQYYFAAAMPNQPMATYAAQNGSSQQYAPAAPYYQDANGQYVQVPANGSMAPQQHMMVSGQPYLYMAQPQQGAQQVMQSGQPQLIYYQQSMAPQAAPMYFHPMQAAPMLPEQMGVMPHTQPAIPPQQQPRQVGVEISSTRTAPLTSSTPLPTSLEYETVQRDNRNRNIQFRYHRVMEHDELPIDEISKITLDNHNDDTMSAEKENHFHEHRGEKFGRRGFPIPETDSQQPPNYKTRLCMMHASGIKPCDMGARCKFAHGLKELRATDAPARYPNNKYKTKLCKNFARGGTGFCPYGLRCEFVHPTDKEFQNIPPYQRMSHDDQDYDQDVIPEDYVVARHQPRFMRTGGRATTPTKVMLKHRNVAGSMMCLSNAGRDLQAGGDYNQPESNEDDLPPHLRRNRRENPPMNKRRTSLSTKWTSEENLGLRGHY

[22] = target: Peroxisome proliferator-activated receptor gamma/Nuclear receptor corepressor 2 (Homo sapiens, UniProt P37231+Q9Y618); assay: Counterscreen for NR2E3 inverse agonists: TR-FRET-based biochemical high throughput dose response assay to identify inverse agonists of the interaction between peroxisome proliferator-activated receptor gamma (PPARg) and nuclear receptor co-repressor 2 (NCOR2).; type: functional
Sequence of Peroxisome proliferator-activated receptor gamma/Nuclear receptor corepressor 2 (P37231 whole entry): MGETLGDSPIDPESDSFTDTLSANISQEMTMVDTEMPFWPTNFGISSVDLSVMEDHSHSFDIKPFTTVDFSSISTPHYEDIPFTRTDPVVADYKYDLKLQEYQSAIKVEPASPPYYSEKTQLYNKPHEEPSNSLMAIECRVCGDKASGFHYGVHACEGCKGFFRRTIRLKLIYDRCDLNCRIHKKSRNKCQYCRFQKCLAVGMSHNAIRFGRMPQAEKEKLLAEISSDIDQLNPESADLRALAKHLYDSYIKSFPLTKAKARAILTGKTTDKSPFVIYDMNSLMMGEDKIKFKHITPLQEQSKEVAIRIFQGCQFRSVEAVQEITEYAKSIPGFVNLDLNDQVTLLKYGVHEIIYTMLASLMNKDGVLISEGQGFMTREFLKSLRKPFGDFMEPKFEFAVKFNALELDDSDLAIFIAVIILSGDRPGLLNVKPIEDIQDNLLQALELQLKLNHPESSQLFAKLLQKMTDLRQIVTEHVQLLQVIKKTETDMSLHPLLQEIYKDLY
Sequence of Peroxisome proliferator-activated receptor gamma/Nuclear receptor corepressor 2 (Q9Y618 whole entry): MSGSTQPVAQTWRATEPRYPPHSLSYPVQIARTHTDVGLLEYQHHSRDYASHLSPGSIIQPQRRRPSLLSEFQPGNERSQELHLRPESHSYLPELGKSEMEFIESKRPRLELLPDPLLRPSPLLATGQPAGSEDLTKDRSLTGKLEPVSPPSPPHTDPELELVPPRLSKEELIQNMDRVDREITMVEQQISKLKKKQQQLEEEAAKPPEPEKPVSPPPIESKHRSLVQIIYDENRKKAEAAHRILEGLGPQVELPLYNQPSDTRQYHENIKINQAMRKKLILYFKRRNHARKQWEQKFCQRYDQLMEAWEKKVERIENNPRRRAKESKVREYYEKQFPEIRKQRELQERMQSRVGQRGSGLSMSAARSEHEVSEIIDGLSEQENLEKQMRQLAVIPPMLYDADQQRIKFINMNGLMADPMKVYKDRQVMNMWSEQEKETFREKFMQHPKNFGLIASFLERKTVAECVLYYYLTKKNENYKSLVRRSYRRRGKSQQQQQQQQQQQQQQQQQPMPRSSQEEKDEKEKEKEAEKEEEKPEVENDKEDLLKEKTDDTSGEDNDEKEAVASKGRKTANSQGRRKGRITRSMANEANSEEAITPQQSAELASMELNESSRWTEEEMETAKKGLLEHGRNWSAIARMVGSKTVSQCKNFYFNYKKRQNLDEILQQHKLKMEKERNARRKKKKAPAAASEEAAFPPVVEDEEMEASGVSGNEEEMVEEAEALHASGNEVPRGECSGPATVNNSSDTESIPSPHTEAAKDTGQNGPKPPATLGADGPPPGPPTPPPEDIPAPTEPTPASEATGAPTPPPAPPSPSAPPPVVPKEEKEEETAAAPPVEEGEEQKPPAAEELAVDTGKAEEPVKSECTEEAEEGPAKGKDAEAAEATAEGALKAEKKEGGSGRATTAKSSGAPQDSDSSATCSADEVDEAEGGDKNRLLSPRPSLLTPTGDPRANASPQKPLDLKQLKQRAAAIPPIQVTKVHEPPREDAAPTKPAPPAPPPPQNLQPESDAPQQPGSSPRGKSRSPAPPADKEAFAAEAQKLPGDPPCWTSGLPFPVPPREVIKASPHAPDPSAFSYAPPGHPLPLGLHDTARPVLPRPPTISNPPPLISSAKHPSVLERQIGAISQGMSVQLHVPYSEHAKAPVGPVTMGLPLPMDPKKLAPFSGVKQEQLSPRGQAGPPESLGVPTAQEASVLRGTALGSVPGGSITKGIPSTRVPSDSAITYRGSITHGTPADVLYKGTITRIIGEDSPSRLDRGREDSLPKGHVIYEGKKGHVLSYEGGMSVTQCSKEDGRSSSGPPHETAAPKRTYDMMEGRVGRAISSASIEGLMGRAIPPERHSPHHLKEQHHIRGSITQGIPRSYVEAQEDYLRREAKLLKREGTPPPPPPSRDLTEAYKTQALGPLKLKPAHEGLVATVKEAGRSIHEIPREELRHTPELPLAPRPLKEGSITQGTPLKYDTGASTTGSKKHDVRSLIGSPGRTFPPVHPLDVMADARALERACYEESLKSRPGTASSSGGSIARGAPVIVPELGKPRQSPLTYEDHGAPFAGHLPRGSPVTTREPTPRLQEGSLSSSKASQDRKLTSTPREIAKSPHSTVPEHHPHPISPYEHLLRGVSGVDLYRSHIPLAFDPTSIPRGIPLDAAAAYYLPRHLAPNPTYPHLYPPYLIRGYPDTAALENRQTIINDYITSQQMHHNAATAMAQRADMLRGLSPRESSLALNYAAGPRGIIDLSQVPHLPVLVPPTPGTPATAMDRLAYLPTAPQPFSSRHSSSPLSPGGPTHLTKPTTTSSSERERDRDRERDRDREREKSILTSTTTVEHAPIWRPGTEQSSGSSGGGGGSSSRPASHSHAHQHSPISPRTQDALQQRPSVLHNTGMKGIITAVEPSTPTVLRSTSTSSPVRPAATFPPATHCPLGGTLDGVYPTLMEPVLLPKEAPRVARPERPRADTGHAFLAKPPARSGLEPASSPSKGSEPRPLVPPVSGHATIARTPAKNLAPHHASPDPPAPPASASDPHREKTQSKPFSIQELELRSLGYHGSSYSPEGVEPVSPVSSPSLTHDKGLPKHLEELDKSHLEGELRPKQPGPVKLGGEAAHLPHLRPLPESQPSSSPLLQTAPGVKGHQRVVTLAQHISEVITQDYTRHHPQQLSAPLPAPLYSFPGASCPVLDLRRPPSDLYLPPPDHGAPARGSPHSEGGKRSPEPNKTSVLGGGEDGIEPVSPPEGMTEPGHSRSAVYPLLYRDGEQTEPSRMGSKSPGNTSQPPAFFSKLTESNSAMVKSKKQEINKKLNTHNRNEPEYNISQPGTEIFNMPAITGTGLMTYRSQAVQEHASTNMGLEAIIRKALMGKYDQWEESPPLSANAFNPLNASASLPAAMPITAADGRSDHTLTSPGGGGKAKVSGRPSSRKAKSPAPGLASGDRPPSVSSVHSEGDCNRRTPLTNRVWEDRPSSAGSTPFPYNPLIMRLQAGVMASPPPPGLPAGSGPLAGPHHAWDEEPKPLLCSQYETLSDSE

[23] = target: Dual specificity tyrosine-phosphorylation-regulated kinase 1A (Rattus norvegicus, UniProt Q63470); type: biochemical, Homo sapiens
[24] = target: Photoreceptor-specific nuclear receptor (Homo sapiens, UniProt Q9Y5X4); assay: NR2E3 inverse agonists, dose response, biochemical, TR-FRET (AID 463256); type: functional
[25] = M. tuberculosis growth inhibition, HTS (AID 449762); type: functional

## Cc1cc2cc(C)c(SCC(=O)NCc3ccco3)nc2cc1C
[1]
  EC50: 489 µM (not active)

## O=C1SC(c2ccccc2)=N/C1=C/c1ccco1
[2]
  EC50: > 50 µM (not active)

## CC(C(=O)N(C)C1CCS(=O)(=O)C1)N1C(=O)/C(=C/c2cccs2)SC1=S (stereo not given)
[3]
  CC50: 32.1 µM (active)

## Cc1ccc(N2C(=O)NC(=O)/C(=C/c3ccoc3)C2=O)cc1
[4]
  IC50: 66.5 µM (active)
[5]
  IC50: 4.84 µM (active)
[6]
  IC50: 3.45 µM (active)
[7]
  IC50: 84.7 µM (active)
[8]
  IC50: 6.76 µM (active)
[9]
  AC50: 7.88 µM (active)
[10]
  IC50: 55.7 µM (active)
[11]
  IC50: 4 µM (active)

## Clc1ccc(-n2nnc(-c3cnc4ccccc4c3)n2)cc1Cl
[12]
  IC50: > 100 µM (not active)
[13]
  IC50: > 100 µM (not active)

## O=C1Nc2cc(F)ccc2/C1=N/Nc1c(F)c(F)nc(F)c1F
[14]
  IC50: > 17 µM (not active)

## CCCN(CCC)C(=O)c1ccc(-n2sc3ccccc3c2=O)cc1
[15]
  IC50: 7.64 µM (active)

## COc1cc2c(cc1OC)-c1cc(N3CCCc4ccccc43)nc(=O)n1CC2
[16]
  IC50: 13.2 µM (active)
[17]
  EC50: 3.35 µM (active)
[18]
  IC50: > 40 µM (not active)
[19]
  EC50: > 112 µM (not active)

## N=C1NC(=O)/C(=C/c2ccc(-c3ccc(S(N)(=O)=O)cc3)o2)S1
[20]
  EC50: 31.9 µM (active)
[21]
  EC50: 15 µM (active)
[22]
  IC50: > 39.8 µM (not active)
[23]
  AC50: 1.97 µM (active)
[24]
  IC50: 14.2 µM (not active)

## C/C(=C\C(=O)c1ccccc1)Nc1ccc(Cl)c(Br)c1
[25]
  IC50: > 100 µM (active)
